“Also recorded” adds a separate entry of the source. Each block holds one molecule with its values, some of them ahead of it.
Columns and labels:
[1] = test system: neonatal rat cardiomyocytes (NRCMs); assay: NRCM bioassay with pharmacological inhibitors (mechanism of cellular action); type: cell-based; conditions: for inhibition of the negative chronotropic effects of EPA, 17,18-EETeTr and C13: 5 min preincubation, 11,12-EET 30 nM, C3, AH6089 10 μM, EPA 3.3 μM, 17,18-EETeTr 30 nM, C13 30 nM; for inhibition of the negative chronotropic effects of EPA, 17,18-EETeTr and C13 / blocking of the positive chronotropic effect of butaprost: calphostin C 100 nM, H89 1 μM; for blocking of the positive chronotropic effect of butaprost: butaprost 100 nM, AH6089 10 μM
Experimental: The bioassay with NRCMs was performed as described in examples 25 and 26. […] The cultured NRCMs were preincubated without or with one of the compounds indicated in FIG. 4 for 5 min before the effect of the following agonists was determined: EPA (3.3 μM), 17,18-EETeTr (30 nM) or C13 (30 nM). In some experiments, the NRCMs were stimulated with a selective EP2 prostanoid receptor agonist (butaprost from Sigma-Aldrich; used at a final concentration of 100 nM) to provide a control for the effect of certain inhibitors.

[2] = test system: neonatal rat cardiomyocytes (NRCMs); assay: Chronotropic effect on spontaneous beating rate of cultured neonatal rat cardiomyocytes (identification of agonists); type: cell-based; conditions: for chronotropic effect (Δ beats/min), mean±SE / agonistic / chronotropic effect on NRCMs, in words: 30 nM, incubation time 5 min; for chronotropic effect (Δ beats/min), mean±SE: NRCM clusters; for agonistic / chronotropic effect on NRCMs, in words: compound alone
Excerpt: This negative chronotropic effect reflects the capacity of the analogs to interact with and to activate a G-protein coupled receptor or other primary cellular targets that reduce the contractility of cardiomyocytes under basal and stress-induced conditions.
The compounds included EPA and 17,18-EETeTr (compounds 01 and 02; purchased from Cayman Chemical) as well as all but one (compound 16) of the analogs synthesized as described in examples 1-24. The R,S— and S,R-enantiomers of 17,18-EETeTr (compounds 03 and 04) were prepared resolving the racemic mixture (compound 02) by means of chiral-phase HPLC as described previously (Barbosa-Sicard E, Markovic M, Honeck H, Christ B, Muller D N, Schunck W H. Biochem Biophys Res Commun. 2005 Apr. 22; 329(4):1275-81). Before use, the compounds to be tested were prepared as 1000-fold stock solutions in ethanol.
Isolation and cultivation of NRCMs were performed as described previously (Wallukat, G; Wollenberger, A. Biomed Biochim Acta. 1987; 78:634-639; Wallukat G, Homuth V, Fischer T, Lindschau C, Horstkamp B, Jupner A, Baur E, Nissen E, Vetter K, Neichel D, Dudenhausen J W, Haller H, Luft F C. J Clin Invest. 1999; 103: 945-952). Briefly, neonatal Wistar rats (1-2 days old) were killed in conformity to the recommendations of the Community of Health Service of the City of Berlin and the cardiomyocytes were dissociated from the minced ventricles with a 0.2% solution of crude trypsin. The isolated cells were then cultured as monolayers on the bottom (12.5 cm^2) of Falcon flasks in 2.5 ml of Halle S M 20-I medium equilibrated with humidified air. The medium contained 10% heat-inactivated FCS and 2 μmol/l fluoro-deoxyuridine (Serva, Heidelberg, Germany), the latter to prevent proliferation of non-muscle cells. The NRCMs (2.4×10^6 cells/flask) were cultured at 37° C. in an incubator. After 5 to 7 days, the NRCMs formed spontaneously beating cell clusters. […] On the day of the experiment, the culture medium was replaced by 2.0 ml fresh serum-containing medium. Two hours later, the beating rates were monitored at 37° C. using an inverted microscope equipped with a heating stage. To determine the basal rate, 6 to 8 individual clusters were selected and the number of contractions was counted for 15 sec. After that, the compound to be tested was added to the culture and the beating rate of the same clusters was monitored 5 min later again. Based on the difference between the basal and compound-induced beating rate of the individual clusters, the chronotropic effects (Δ beats/min) were calculated and are given as mean±SE values. N refers to the number of clusters monitored which originated, in general, from at least three independent NRCM cultures.
This effect was fully expressed using an EPA concentration of 3.3 μM and an incubation time of 30 min. In contrast, 17,18-EETeTr (C02) produced the same effect almost immediately and already in the low nanomolar range (EC50 of 1-2 nM, data not shown). To compare the activity of 17,18-EETeTr with that of its synthetic analogs, all these compounds were tested at a final concentration of 30 nM and using an incubation time of 5 min.

[3] = test system: neonatal rat cardiomyocytes (NRCMs); assay: Antagonism of the negative chronotropic effect of agonists in NRCMs (identification of antagonists); type: cell-based; conditions: for inhibition of the agonistic effect of compound C4: 5 min preincubation, C4 and potential antagonist each 30 nM
Experimental: These antagonists were selected based on their capacity to abolish the negative chronotropic effects of EPA, 17,18-EETeTr and their synthetic agonists on the contractility of neonatal rat cardiomyocytes.
Potential antagonists included compounds C1, C3, C5, C6, C7, and C8, which were synthesized as described above in the corresponding examples.
The bioassay was performed with NRCMs as described in example 25. In the first series of experiments, compound C4 was used as the agonist and its effect was determined after preincubating the cultured NRCMc for 5 min with one of the potential antagonists. Both C4 and the potential antagonist were used at a final concentration of 30 nM.

[4] = test system: rat model of myocardial infarction; assay: Anti-arrhythmic effect in rat model of myocardial infarction (LAD ligation); type: in vivo; conditions: male Wistar rats
Experimental: Study design: To gain insight into the in-vivo effects of synthetic 17,18-EETeTr-agonists, myocardial infarction studies were performed in male Wistar rats. Briefly, rats weighing 220-250 g were randomized to receive an i.v. bolus of compound C17 (100 μg in 300 μl 0.9% NaCl) or only 300 μl 0.9% NaCl as vehicle control two hours before induction of myocardial infarction. For safe bolus application, animals were mildly anesthetized using isoflorane. Two hours after bolus application, animals were re-anesthetized with a mixture of ketamine and xylazine (i.v.). Continuous monitoring of the surface-ECG was started (EPTracer, Netherlands) and maintained until the end of the study. After recording of the basal ECG, myocardial infarction was induced by ligation of the left anterior descending artery (LAD). One hour after myocardial infarction animals were sacrificed and organ harvested. Samples from urine, blood, liver, kidney and heart were stored for further analysis.
Method of arrhythmia analysis: Ventricular tachycardia burden was calculated as the sum of all arrhythmic events originating from the ventricular myocardium, which were observed within the first hour after induction of myocardial infarction. In order to quantify not only the frequency but also the severity of the ventricular arrhythmias, an arrhythmia-severity-score was calculated. This score was calculated as the sum of the number of different arrhythmia events (PVC, couplet, triplet, VT<1.5 sec, VT>=1.5 sec), each class factorized by an increasing severity index of 1-5 (e.g. PVC×1, couplets×2, . . . , VT>=1.5 sec×5).

Molecule: CCCCC/C=C\CC1OC1C/C=C\C/C=C\CCCC(=O)O (centres unmarked) [11,12-EET, 11,12-epoxyeicosatrienoic acid]
inhibition of the negative chronotropic effects of EPA, 17,18-EETeTr and C13 [1]: strongly inhibited

Molecule: CCC1OC1C/C=C/C/C=C/C/C=C/C/C=C/CCCC(=O)O (centres unmarked) [17,18-EETeTr, reference compound]
chronotropic effect (Δ beats/min), mean±SE [2]: −22.5±0.8 beats/min
EC50 ([2]; NRCMs, effect almost immediate, data not shown, read-out: EC50 of reduction of the beating rate): 1 to 2 nM
agonistic / chronotropic effect on NRCMs, in words [2]: acted as agonist

Molecule: CC(C)Oc1ccc2c(=O)c3cc(C(=O)O)ccc3oc2c1 [AH6089]
inhibition of the negative chronotropic effects of EPA, 17,18-EETeTr and C13 [1]: strongly inhibited
blocking of the positive chronotropic effect of butaprost [1]: blocked

Molecule: CCC1OC1C/C=C\CCCCCCC/C=C\CCCC(=O)O (centres unmarked) [Compound C1, (5Z,14Z)-16-(3-Ethyloxirane-2-yl)hexadeca-5,14-dienoic acid]
inhibition of the agonistic effect of compound C4 [3]: did not inhibit
agonistic / chronotropic effect on NRCMs, in words [2]: inactive when tested alone

Molecule: CCC1OC1CCCC/C=C\CCCC/C=C\CCCC(=O)O (centres unmarked) [Compound C2, (5Z,11Z)-16-(3-Ethyloxirane-2-yl)hexadeca-5,11-dienoic acid]
agonistic / chronotropic effect on NRCMs, in words [2]: Agonists

Molecule: CCC1OC1C/C=C\CCCC/C=C\CCCCCCC(=O)O (centres unmarked) [Compound C3, (8Z,14Z)-16-(3-Ethyloxirane-2-yl)hexadeca-8,14-dienoic Acid]
inhibition of the negative chronotropic effects of EPA, 17,18-EETeTr and C13 [1]: strongly inhibited
blocking of the positive chronotropic effect of butaprost [1]: not
inhibition of the agonistic effect of compound C4 [3]: significantly inhibited
effect on the negative chronotropic effect of EPA ([3]; antagonist 30 nM, EPA 3.3 μM): abolished
antagonistic effect against C4, EPA, 17,18-EETeTr, C2 and C13 ([3]; antagonist 30 nM, EPA 3.3 μM, other agonists 30 nM each): highly potent antagonist
effect on the negative chronotropic effect of C13 ([3]; both analogs in equimolar concentrations (30 nM)): almost completely blocked
agonistic / chronotropic effect on NRCMs, in words [2]: did not exert any significant effect

Molecule: CCC1OC1CCCC/C=C\CCCCCCCCCC(=O)O (centres unmarked) [Compound C4, 16-[(Z)-3-Ethyloxiranyl]hexadec-11(Z)-enoic Acid]
chronotropic effect (Δ beats/min), mean±SE [2]: −18.3±1.5 beats/min
agonistic / chronotropic effect on NRCMs, in words [2]: Agonists; also recorded: agonistic effects

Molecule: CCC1OC1C/C=C\CCCCCCCCCCCCC(=O)O (centres unmarked) [Compound C5, 16-[(Z)-3-Ethyloxiranyl]hexadec-14(Z)-enoic Acid]
inhibition of the agonistic effect of compound C4 [3]: significantly inhibited
agonistic / chronotropic effect on NRCMs, in words [2]: no effect; also recorded: did not exert any significant effect

Molecule: CCC1OC1CCCCCCC/C=C\CCCCCCC(=O)O (centres unmarked) [Compound C6, 16-[(Z)-3-Ethyloxiranyl]hexadec-8(Z)-enoic Acid]
inhibition of the agonistic effect of compound C4 [3]: did not inhibit
agonistic / chronotropic effect on NRCMs, in words [2]: inactive when tested alone

Molecule: CCC1OC1CCCCCCCCCC/C=C\CCCC(=O)O (centres unmarked) [Compound C7, 16-[(Z)-3-Ethyloxiranyl]hexadec-5(Z)-enoic Acid]
inhibition of the agonistic effect of compound C4 [3]: did not inhibit
agonistic / chronotropic effect on NRCMs, in words [2]: inactive when tested alone

melting point: 62.1 to 62.5 °C
Molecule: CCC1OC1CCCCCCCCCCCCCCCC(=O)O (centres unmarked) [Compound C8, 16-[(Z)-3-Ethyloxiranyl]hexadecanoic Acid]
inhibition of the agonistic effect of compound C4 [3]: did not inhibit
agonistic / chronotropic effect on NRCMs, in words [2]: inactive when tested alone

melting point: 99.2 to 99.6 °C
Molecule: CCCC(=O)NCCCC/C=C\CCCCCCCCCC(=O)O [Compound C12, 16-(Butyrylamino)hexadec-11(Z)-enoic acid]
agonistic / chronotropic effect on NRCMs, in words [2]: largely inactive

Molecule: CNC(=O)C(=O)NCCCC/C=C\CCCCCCCCCC(=O)O [Compound C13, 16-(2-(methylamino)-2-oxoacetamido)hexadac-11(Z)-enoic acid]
chronotropic effect (Δ beats/min), mean±SE [2]: −33.7±1.3 beats/min
agonistic / chronotropic effect on NRCMs, in words [2]: Agonists

Molecule: CCNC(=O)NCCCC/C=C\CCCCCCCCCC(=O)NCC(=O)[O-].[Na+] [Compound C17, Sodium (Z)-2-(16-(3-Ethylureido)hexadec-11-enamido)acetate]
side effects of bolus injection ([4]; i.v. bolus 100 μg): did not induce any obvious negative side effects
ventricular tachycardia burden ([4]; i.v. bolus 100 μg two hours before LAD ligation, first hour after infarction, n=5): 7526.2±5664.3 ms/h
arrhythmia severity score ([4]; i.v. bolus 100 μg two hours before LAD ligation, n=5): 125±25 arbitrary units
agonistic / chronotropic effect on NRCMs, in words [2]: Agonists

Molecule: CCNC(=O)NCCCC/C=C\CCCCCCCCCC(=O)OCCOCCOCCO [Compound C18, 2-(2-(2-Hydroxyethoxy)ethoxy)ethyl 16-(3-ethylureido)hexadec-11 (Z)-enoate]
agonistic / chronotropic effect on NRCMs, in words [2]: Agonists

melting point: 72.7 to 73.1 °C
Molecule: CCCC(=O)NC/C=C\CCCCCCCCCCCCC(=O)O [Compound C22, 16-Butyramidohexadec-14(Z)-enoic acid]
agonistic / chronotropic effect on NRCMs, in words [2]: positive chronotropic effect

melting point: 78.2 to 78.8 °C
Molecule: CCCCNC(=O)CCC/C=C\CCCCCCCCCC(=O)O [Compound C24, 16-(Butylamino)-16-oxohexadec-11 (Z)-enoic acid]
agonistic / chronotropic effect on NRCMs, in words [2]: Agonists; also recorded: maintain

Molecule: O=S(=O)(NCCNC/C=C/c1ccc(Br)cc1)c1cccc2cnccc12 [Compound H89]
inhibition of the negative chronotropic effects of EPA, 17,18-EETeTr and C13 [1]: not affected
blocking of the positive chronotropic effect of butaprost [1]: blocked

Molecule: CC/C=C\C/C=C\C/C=C\C/C=C\C/C=C\CCCC(=O)O [EPA, eicosapentaenoic acid, reference compound]
concentration resulting in a progressive reduction of the beating rate ([2]; NRCM cultures): above 1 μM
concentration at which the reduction of the beating rate was fully expressed ([2]; incubation time of 30 min): 3.3 µM

Molecule: CCCC1([C@H](O)C/C=C/[C@H]2[C@H](O)CC(=O)[C@@H]2CCCCCCC(=O)OC)CCC1 [butaprost]
chronotropic effect on NRCMs ([1]; 100 nM): positive chronotropic effect

Molecule: calphostin C
inhibition of the negative chronotropic effects of EPA, 17,18-EETeTr and C13 [1]: strongly inhibited
blocking of the positive chronotropic effect of butaprost [1]: not

— patent US11365183B2, “Eicosanoid derivatives” (MAX-DELBRUECK-CENTRUM FUER MOLEKULARE MEDIZIN, priority 2009, dated 2022)
